Values joined by “and” are separate entries in the source; they are usually repeats but may differ in a detail not shown here. Equal values may be shown once. Read-outs that look alike come from different tables or passages of the source.
Assays:
[1] = system: subplantar edema caused by carrageenan in rats; assay: Edema caused by carrageenan in rats (Winter et al); type: in vivo; conditions: oral, AFP 802 187 mg/Kg, ibuprofen 100 mg/Kg
Method: The anti-inflammatory activity has been investigated by a series of tests using edema caused by carrageenan and kaolin pleuritis caused by carrageenan and arthritis caused by an adjuvant.
The plyethysmographic observations of the edema have been carried out every hour for a period of 7 hours after the induction of the edema.

[2] = system: Pleuritis caused by carrageenan in rats; assay: Pleuritis caused by carrageenan in rats (Vinegar et al); type: in vivo; conditions: for Number of leucocytes × 1,000 / Volume of exudate in cc / Number of leucocytes, % inhibition with respect to the controls / Volume of exudate, % inhibition with respect to the controls: 100 mg/Kg oral
[3] = system: Test of Randall and Selitto, in rats; assay: Test of Randall and Selitto in rats; type: in vivo
Method: The analgesic activity of AFP 802 has been studied by means of the writhing test with phenylquinone in mice and by means of the test of Randall and Selitto in rats. Test of Randall and Selitto in rats. This test was carried out according to the method of L. Randall and J. Selitto reported in Arch. Int. Pharmacodyn., 1957 III, 409. […] The variations of pressure tolerated without variation in pain have been determined each hour, for 5 consecutive hours and the results are reported in Table 10.

[4] = Organ to plasma ratio of ibuprofen concentrations in rats; type: in vivo; conditions: vs administration of ibuprofen
Method: (§1) AFP 802 has been administered orally in the dose of 200 mg/kg in rats. […] The animals are killed in groups of four after the following time periods; 15 minutes, 30 minutes, 1 hour, 2 hours, 4 hours, 6 hours and 24 hours.

[5] = system: Hyperthermia caused by yeast; assay: Antipyretic activity, hyperthermia caused by yeast in rats (Boissier and Simon); type: in vivo
Excerpt: The experiment has been carried out in rats in which the body temperature has been increased by means of yeast by the method according to J. R. Boissier and P. Simon (Therapie, 1962, 17, 1225). […] It is, however, necessary to keep in mind the difference in molecular weight between the two substances under examination.

mice = assay: in vivo; type: in vivo; conditions: mice and rats, particularly by the oral route
in vivo [6] = type: in vivo; conditions: mouse, in vivo, mice, read-out: DL50 (limit of error 95%)
[7] = Pharmacokinetics, plasma levels after oral administration in rats; type: in vivo
Method: as §1

gastric mucosa = system: gastric mucosa; parameters: species or system rats; conditions: rat, in vivo, po
[8] = system: Writhing caused by phenylquinone in mice; assay: Writhing caused by phenylquinone in mice (Siegmung et al); type: in vivo
Excerpt: The analgesic activity of AFP 802 has been studied by means of the writhing test with phenylquinone in mice and by means of the test of Randall and Selitto in rats.

in vivo [9] = conditions: rat, rats, read-out: DL50 (limit of error 95%)
[10] = system: Arthritis caused by the adjuvant of Freund in rats; assay: Arthritis caused by the adjuvant in rats (Winter and Nuss); type: in vivo
Excerpt: For the evaluation for the efficiency of the substance the following parameters have been considered: diameter of articulations, volume of the hind paws, hematological and hematochemical examination, weight of the suprarenal glands and thymus.

[11] = system: Edema caused by kaolin in rats; assay: Edema caused by kaolin in rats (Coulon et al); conditions: 5 consecutive days
[12] = both paws, area under the curve of the increases, 100 mg/Kg/die oral

With COc1cc(C(=O)OCC(C)c2ccc(CC(C)C)cc2)cc(OC)c1OC (centres unmarked) [AFP 802, 2-(4-isobutylphenyl)1-propanol 3,4,5-trimethoxybenzoate] the “Average volume of the paw” value ([1]; 0 hours) was 22.6, the “Average volume of the paw” value ([1]; 1 hour) was 27.9 and the “Average volume of the paw” value ([1]; 2 hours) was 28.6. For the same compound, the “Average volume of the paw” value ([1]; 3 hours) was 28.4, the “Average volume of the paw” value ([1]; 4 hours) was 28.9 and the “Average volume of the paw” value ([1]; 5 hours) was 29.6. The “% inhibition vs control” value ([1]; area) was 60.4%, the “Area Absolute Value” [1] was 119.3 and the “Number of leucocytes × 1,000” value ([2]; 5 hours) was 4,804 × 1,000. The “Volume of exudate in cc” value ([2]; 5 hours) was 0.56 cc, the “Number of leucocytes, % inhibition with respect to the controls” value ([2]; 5 hours, 100 mg/kg) was 71.80% and 72% and the “Volume of exudate, % inhibition with respect to the controls” value ([2]; 5 hours, 100 mg/kg) was 43.43% and 43%. The “effect in pleuritis compared with ibuprofen (in words)” value ([2]; 5 hours, equal doses by weight) was “analogous to the values obtained by administration of equal doses by weight of ibuprofen”, the “effect in pleuritis (in words)” value ([2]; 24 hours after the administration) was “practically unchanged” and the “Number of leucocytes × 1,000” value ([2]; 24 hours) was 7,676 × 1,000. The “Number of leucocytes, % inhibition with respect to the controls” value ([2]; 24 hours) was 58.05%, the “Volume of exudate in cc” value ([2]; 24 hours) was 0.47 cc and the “Volume of exudate, % inhibition with respect to the controls” value ([2]; 24 hours) was 48.91%. The “% INHIBITION WITH RESPECT TO THE CONTROL, I” value ([3]; area, inflamed paw, 100 mg/Kg oral) was 110.89%, the “% INHIBITION WITH RESPECT TO THE CONTROL, NI” value ([3]; area, not inflamed paw, 100 mg/Kg oral) was 46.93% and the “AREA ABSOLUTE VALUE, I” value ([3]; inflamed paw, area of the increase of the pressure tolerated, 100 mg/Kg oral) was 11.7 ± 22.1. The “activity expressed in percent of inhibition of the area (in words)” value ([3]; limb in which no injections have been made) was “fair, lower than the activity of ibuprofen”, the “activity expressed in percent of inhibition of the area (in words)” value ([3]; limbs affected by edema) was “high, superior to the activity of ibuprofen” and the “AREA ABSOLUTE VALUE, NI” value ([3]; not inflamed paw, area of the increase of the pressure tolerated, 100 mg/Kg oral) was -61.20 ± 16.39. The “ratio of the organ to the plasma for ibuprofen concentrations (in words)” value ([4]; kidney) was “lower in the case of kidney”, the “ratio of the organ to the plasma for ibuprofen concentrations (in words)” value ([4]; liver, lungs and uterus) was “higher in the case of liver, lungs and uterus” and the “% inhibition with respect to control” value ([5]; 100 mg/Kg oral) was 86.12%. The Rectal temperature ([5]; 1 hour after treatment, 100 mg/Kg oral) was 38.22 °C, the Rectal temperature ([5]; 2 hours after treatment, 100 mg/Kg oral) was 37.75 °C and the Rectal temperature ([5]; 3 hours after treatment, 100 mg/Kg oral) was 37.51 °C. The Rectal temperature ([5]; 4 hours after treatment, 100 mg/Kg oral) was 37.16 °C, the Rectal temperature ([5]; 5 hours after treatment, 100 mg/Kg oral) was 37.04 °C and the Rectal temperature ([5]; Basal, 100 mg/Kg oral group) was 38.73 °C. The “antipyretic activity compared with ibuprofen (in words)” value ([5]; equal dose, oral) was “only slightly inferior to the activity of an equal dose of ibuprofen”, the “duration of action compared with ibuprofen (in words)” value ([5]; rat, in vivo) was “longer duration of action” and the “DL50 compared with ibuprofen (in words)” value (mice) was “more favorable than ibuprofen particularly by the oral route”. The LD50 (in vivo [6]; ip, intraperitoneal route) was 1750 mg/kg, the LD50 (in vivo [6]; oral route) was > 4000 mg/kg and the “presence in the blood fluid (in words)” value ([7]; 15 minutes and 30 minutes after oral 200 mg/kg) was “presence already after a short period of time in the blood fluid”. For the same compound, the “area under the curve of the plasma levels of ibuprofen (AUC) (in words)” value ([7]; AFP 802 200 mg/kg vs ibuprofen 100 mg/kg, oral) was “substantially similar in the administration of the two substances”, the “plasma levels of ibuprofen over time (in words)” value ([7]; ibuprofen after AFP 802 vs ibuprofen in equimolar doses) was “substantially latent with respect to ibuprofen in equimolar doses” and the “time when ibuprofen (active metabolite) begins to appear in the blood (in words)” value ([7]; ibuprofen after oral AFP 802 200 mg/kg) was “the first hour which is the time when ibuprofen, which is its active metabolite, begins to appear”. The “bioavailability by the oral route (in words)” value ([7]; oral 200 mg/kg) was “readily bioavailability by the oral route”, the “presence in the blood after the first hour (in words)” value ([7]; oral 200 mg/kg) was “found in the blood even after the first hour” and the “effects of gastric lesion (in words)” value (gastric mucosa) was “almost negligible”. For the same compound, the “% inhibition with respect to the control” value ([8]; 100 mg/Kg oral) was 78.2%, the “No. of Contorsions” value ([8]; 100 mg/Kg oral) was 4.5 and the “% inhibition with respect to the control” value ([8]; 200 mg/Kg oral) was 89.1%. The “No. of Contorsions” value ([8]; 200 mg/Kg oral) was 2.3, the “analgesic activity compared with ibuprofen (in words)” value ([8]; equal weight, oral) was “equal activity of the two products” and the LD50 (in vivo [9]; ip, intraperitoneal route) was 193 mg/kg. The LD50 (in vivo [9]; oral route) was > 4000 mg/kg, the “ALBUMIN (%)” value ([10]; 100 mg/Kg/die oral) was 70.3 ± 0.97% and the “GLOBULIN (%) α1” value ([10]; 100 mg/Kg/die oral) was 7.2 ± 0.36%. For the same compound, the “GLOBULIN (%) α2” value ([10]; 100 mg/Kg/die oral) was 6.2 ± 0.38%, the “GLOBULIN (%) β1” value ([10]; 100 mg/Kg/die oral) was 11.7 ± 0.30% and the “GLOBULIN (%) β2” value ([10]; 100 mg/Kg/die oral) was 5.7 ± 0.45%. The “GLOBULIN (%) γ” value ([10]; 100 mg/Kg/die oral) was 2.0 ± 0.31%, the Hematocrit ([10]; 100 mg/Kg/die oral) was 46.1 ± 0.6 and the “Red Cells” value ([10]; 100 mg/Kg/die oral) was 5,912.600 ± 1.434 × mm^3. For the same compound, the VES ([10]; 100 mg/Kg/die oral) was 0.9 ± 0.1, the “Σ Diameter D + S, Area” value [10, 12] was 2,602.0 and the “Σ Volume D + S, Area” value [10, 12] was 15,652. The “Σ Diameter D + S, % inhibition” value ([10]; both paws, 100 mg/Kg/die oral) was 71.08%, the “Σ Volume D + S, % inhibition” value ([10]; both paws, 100 mg/Kg/die oral) was 47.76% and the “activity in adjuvant arthritis (in words)” value ([10]; oral, 45 consecutive days, 6 days per week) was “essentially analogous to that of ibuprofen”. For the same compound, the Suprarenal ([10]; weight, 100 mg/Kg/die oral) was 64.5 ± 3.3 mg, the Thymus ([10]; weight, 100 mg/Kg/die oral) was 422.3 ± 19.1 mg and the “% inhibition with respect to the controls” value ([11]; area, oral every 24 hours, dose AFP 802 115, ibuprofen 60) was 44.10%. For the same compound, the “inhibition of the inflammation (in words)” value ([11]; equimolar oral doses) was “inhibits the inflammation to a substantial extent with values which overlap with the values obtained in the case of ibuprofen” and the “Area (area under the curve of the increase of the diameter of the articulations)” value ([11]; oral every 24 hours, dose AFP 802 115, ibuprofen 60) was 9799.5 mm^2.
